Data on 2 molecules can be found in patent publication US20080219977A1, “Combinations Comprising Gemcitabine and Tyrosine Kinase Inhibitors for the Treatment of Pancreatic Cancer” (priority 2005, published 2008).

The test system of experiment [1] is Endothelial cells. Description: Mean vessel density (CD31/PECAM-1) in L3.6pl tumors. The format is in vivo, nude mice. As to conditions: Median ± S.D., microvessels in 10 random 0.159-mm^2 fields at ×100. On the procedure: (§1) IHC Determination of Proliferating Cell Nuclear Antigen (PCNA), CD31/PECAM-1 (Endothelial Cells) and TUNEL (Apoptosis). Paraffin-embedded tissues are used for IHC identification of proliferating cell nuclear antigen (PCNA). Frozen tissues used for identification of CD31/PECAM-1 are sectioned (8-10 μm), mounted on positively charged slides, and air-dried for 30 min. Frozen sections are fixed in cold acetone (5 min), in acetone/chloroform (v/v; 5 min), and again in acetone (5 min), and washed with PBS. IHC procedures are performed as described previously (Hwang et al. in Clin Cancer Res 2003; 9:6534-44). Control samples exposed to a secondary antibody alone show no specific staining. […] Statistical Analysis. Body weight, tumor weight, PCNA-positive cells, mean vessel density (CD31/PECAM-1), and TUNEL-positive cells are compared using the Mann-Whitney U test. Survival analysis is computed by the Kaplan-Meier method and compared by the Log rank test.

For experiment [2], the system named is L3.6pl human pancreatic cancer cells. Description: Apoptosis (TUNEL) in L3.6pl tumors. The format is in vivo. As to conditions: Median ± S.D.; TUNEL-positive cells in 10 random 0.159-mm^2 fields at ×100. The procedure:
Analysis of apoptotic cells is performed by using a commercially available TUNEL kit (Promega) with the following modifications: Samples are fixed and incubated with an equilibration buffer followed by a reaction buffer (containing nucleotide mix and terminal deoxynucleotidyl transferase enzyme). Immunofluorescence microscopy is performed in a Zeiss Axioplan microscope (Carl Zeiss, Inc., Thornwood, N.Y.) equipped with an HBO 100 mercury lamp, narrow bandpass filters to individually select for green, red, and blue fluorescence (Chroma Technology Corp., Brattleboro, Vt.). Images are captured using a cooled CCD Hamamatsu Orca camera (Hamamatsu Corp., Bridgewater, N.J.) and Image Pro Analysis software (Media Cybernetics, Silver Spring, Md.). Photomontages are prepared using Adobe Photoshop software (Adobe Systems, Inc., San Jose, Calif.). […] Statistical Analysis. Body weight, tumor weight, PCNA-positive cells, mean vessel density (CD31/PECAM-1), and TUNEL-positive cells are compared using the Mann-Whitney U test. Survival analysis is computed by the Kaplan-Meier method and compared by the Log rank test.

The test system is the same in experiment [3]. Description: Cell proliferation (PCNA) IHC in L3.6pl tumors. The conditions noted are these: Median ± S.D., positive cells in 10 random 0.159-mm^2 fields at ×100. The class given is in vivo. The procedure: as §1, with “9:6534-44).” for “9:6534-44). Control samples exposed to a secondary antibody alone show no specific staining.”
Experiment [4] relates to EGF, VEGF, PDGF-BB, EGFR, VEGFR, and PDGFR. Briefly: IHC expression level of growth factors and receptors in L3.6pl pancreatic tumors. The format is in vivo, human. The conditions noted are these: IHC of pancreatic tumors from treated mice. The text has this:
Immunohistochemical (IHC) Analysis to Detect EGF, VEGF, PDGF-BB, EGFR, VEGFR, PDGFRβ, pEGFR, pVEGFR, pPDGF-R in Pancreatic Tumors. Paraffin-embedded pancreatic tumors of mice from all treatment groups are immunostained to evaluate the expression of EGF, VEGF, PDGF-BB, EGFR, VEGFR, PDGFRβ, phosphorylated (p)EGFR, pVEGFR, and pPDGFRβ. The sections are deparaffinized in xylene, dehydrated with alcohol and rehydrated in PBS. Endogenous peroxidase is blocked with 3% hydrogen peroxide in PBS. Samples are exposed to protein block (5% normal horse serum, 1% normal goat serum in PBS) and incubated overnight at 4° C. with each primary antibody at the appropriate dilution. After 1 h incubation at room temperature with peroxidase-conjugated secondary antibody, positive reaction is detected by exposure to stable 3,3′-diaminobenzidine (DAB) (Phoenix Biotechnologies, Huntsville, Ala.). Slides are counterstained with Gill's #3 hematoxylin. Sections stained for immunoperoxidase or hematoxylin and eosin are examined in a microscope equipped with a three-chip-charged coupled device (CCD) color video camera. Digital images are captured using Optimas Image Analysis software (Media Cybernetics, Md.).

For experiment [5], the system named is L3.6pl human pancreatic cancer cells. Description: Therapy of established L3.6pl human pancreatic carcinoma tumors growing in the pancreas of athymic nude mice (tumor weight). The class given is in vivo. As to conditions: for Tumor weight (g) Median: pancreatic tumor, AEE788 50 mg/kg oral 3x/week, STI571 50 mg/kg oral daily, gemcitabine 50 mg/kg i.p. twice weekly, 4 weeks, killed day 49, n=10. The text has this: Animals and Orthotopic Implantation of Tumor Cells. Male athymic nude mice (NCI-nu) are purchased from the Animal Production Area of the National Cancer Institute Frederick Cancer Research and Development Center (Frederick, Md.). The mice are housed and maintained under specific pathogen-free conditions. The mice are used when they are 8 to 12 weeks old. To produce pancreatic tumors, L3.6pl cells are harvested from subconfluent cultures by a brief exposure to 0.25% trypsin and 0.02% EDTA. Trypsinization is stopped with medium containing 10% FBS, and the cells are washed once in serum-free medium and resuspended in Hanks' balanced salt solution (HBSS). Only suspensions consisting of single cells with greater than 90% viability are used for injection into the pancreas of nude mice as described previously (Hwang et al. in Clin Cancer Res 2003; 9:6534-44). Treatment of Established Human Pancreatic Carcinoma Tumors Growing in the Pancreas of Athymic Nude Mice. Twenty-one days after the intra-pancreatic injection of 0.5×10^6 viable L3.6pl cells in 50 μl HBSS, the pancreatic tumors reach the size of 5-6-mm. […] All mice are treated for 4 weeks and killed on day 49 of the experiment. Necropsy Procedures and Histological Studies. […] Tumors growing in the pancreas are excised and weighed. For immunohistochemical staining procedures, one part of the tumor tissue is fixed in formalin and embedded in paraffin and the other is embedded in OCT compound (Miles, Inc., Elkhart, Ind.), rapidly frozen in liquid nitrogen, and stored at −70° C. Statistical Analysis. Body weight, tumor weight, PCNA-positive cells, mean vessel density (CD31/PECAM-1), and TUNEL-positive cells are compared using the Mann-Whitney U test. Survival analysis is computed by the Kaplan-Meier method and compared by the Log rank test.

Marks after values point to notes of the source that are not given here.

Take `CCN1CCN(Cc2ccc(-c3cc4c(N[C@H](C)c5ccccc5)ncnc4[nH]3)cc2)CC1` [AEE788]: the “Endothelial cells CD31 (mean vessel density)” value in experiment [1] is given as 25 ± 5^d. The “Tumor cells TUNEL (number of apoptotic tumor cells)” value in experiment [2] is reported as 14 ± 4^f. In experiment [3], the “Tumor cells PCNA (number of PCNA-positive cells)” value is given as 233 ± 54^e. For the same molecule, the “expression level of EGF, VEGF, PDGF-BB, EGFR, VEGFR, and PDGFR by the tumor cells or in the stroma cells” value in experiment [4] is reported as “do not alter the expression level”. Besides, the “Tumor weight (g) Median” value in experiment [5] came out at 0.33 g.

On to `Nc1ccn([C@@H]2O[C@H](CO)[C@@H](O)C2(F)F)c(=O)n1` [Gemcitabine], for which the “Endothelial cells CD31 (mean vessel density)” value in experiment [1] is listed as 38 ± 7; in experiment [1] (listed as gemcitabine), “does not decrease MVD”. Moreover, the “Tumor cells TUNEL (number of apoptotic tumor cells)” value in experiment [2] is recorded as 8 ± 3^f. Moreover, the “Tumor cells PCNA (number of PCNA-positive cells)” value in experiment [3] is given as 305 ± 71; in experiment [3] (listed as gemcitabine), “decreases the number of dividing PCNA-positive cells”. Further, in experiment [4], the “expression level of EGF, VEGF, PDGF-BB, EGFR, VEGFR, and PDGFR by the tumor cells or in the stroma cells” value is listed as “do not alter the expression level”. Further, the “effect on tumor growth (in words)” value in experiment [5] (L3.6pl implanted in the pancreas of nude mice, each drug 50 mg/kg) was “does not inhibit tumor growth”. Moreover, the “Tumor weight (g) Median” value in experiment [5] is 0.78 g.
